We go through ten compounds from patent US20030162777A1, “Novel N-acylated heterocycles” (Recordati S.A., priority 2001, published 2003).

One experiment concerns the target T1, 5-HT1A receptors (Rattus norvegicus, UniProt P19327).
T1 construct: from tissue; host or cells: whole animal: male Sprague-Dawley rats (post-synaptic 5-HT1A receptors)
T1 sequence (P19327 1-422): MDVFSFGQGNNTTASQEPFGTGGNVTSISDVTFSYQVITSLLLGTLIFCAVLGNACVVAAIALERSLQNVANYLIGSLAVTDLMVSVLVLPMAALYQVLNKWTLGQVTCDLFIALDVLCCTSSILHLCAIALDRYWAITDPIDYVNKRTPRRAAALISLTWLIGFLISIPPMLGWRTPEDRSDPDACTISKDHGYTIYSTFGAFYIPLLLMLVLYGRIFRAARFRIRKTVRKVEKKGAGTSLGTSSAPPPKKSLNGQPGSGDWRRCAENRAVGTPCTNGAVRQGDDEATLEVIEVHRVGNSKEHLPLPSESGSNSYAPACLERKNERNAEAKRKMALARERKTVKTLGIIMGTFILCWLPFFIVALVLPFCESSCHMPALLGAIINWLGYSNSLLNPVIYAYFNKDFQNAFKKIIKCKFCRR
The experiment in a line: Inhibition of stereotypy (rhythmic forepaw treading) induced by 8-OH-DPAT in rats (post-synaptic antagonism). Format: in vivo. Conditions: for inhibition at 10 mg/kg / inhibition at 1 mg/kg: rat; for inhibition at 10 mg/kg: 10 mg/kg p.o.; for post-synaptic 5-HT1A-receptor antagonist activity (in words) / inhibition at 1 mg/kg: 1 mg/kg p.o.; for post-synaptic 5-HT1A-receptor antagonist activity (in words): rats. Here is the method:
The inhibitory effect of 5-HT1A-receptor antagonists on stereotyped forepaw treading induced in rats by subcutaneous injection of 8-OH-DPAT was evaluated by the method of Tricklebank (Tricklebanket al., Eur. J. Pharmacol., 117: 15, 1985) with minor modifications as described below.
Male Sprague-Dawley rats [Crl: CD° (SD) BR] weighing 150-175 g from Charles River Italia were used. The animals were housed with free access to food and water and maintained on a forced 12-hour-light/12-hour-dark cycle at 22-24° C. of temperature. On the day of the experiment, the rats were placed singly in clear plastic containers, 10-15 minutes before administration of the vehicle or compounds to be tested. For evaluation of antagonistic activity after oral administration, the compounds were administered 0.5, 1 and 4 hours before induction of stereotypy by 8-OH-DPAT (1 mg/kg subcutaneously). Observation sessions lasted 30 seconds and began 3 minutes after 8-OH-DPAT treatment and were repeated every 3 minutes over a period of 15 minutes.
The appearance of the symptom induced by postsynaptic stimulation of 5-HT1A receptors was noted, and the intensity was scored using an intensity scale in which: 0=absent, 1=equivocal, 2=present and 3=intense. Behavioural scores for treated rats were accumulated throughout the observation time (5 observation periods) and expressed as mean values of 4 rats/dose. Change in mean values of treated animals in comparison with control (vehicle) group, expressed as per-cent inhibition, was used in order to quantify the antagonistic activity.

The target in experiment [1] is T2, human 5HT1A-serotonergic receptor (Homo sapiens, UniProt P08908).
T2 construct: expressed in transfected cells; host or cells: HeLa (human cell line), stably transfected; cell membranes used
T2 sequence (P08908 1-422): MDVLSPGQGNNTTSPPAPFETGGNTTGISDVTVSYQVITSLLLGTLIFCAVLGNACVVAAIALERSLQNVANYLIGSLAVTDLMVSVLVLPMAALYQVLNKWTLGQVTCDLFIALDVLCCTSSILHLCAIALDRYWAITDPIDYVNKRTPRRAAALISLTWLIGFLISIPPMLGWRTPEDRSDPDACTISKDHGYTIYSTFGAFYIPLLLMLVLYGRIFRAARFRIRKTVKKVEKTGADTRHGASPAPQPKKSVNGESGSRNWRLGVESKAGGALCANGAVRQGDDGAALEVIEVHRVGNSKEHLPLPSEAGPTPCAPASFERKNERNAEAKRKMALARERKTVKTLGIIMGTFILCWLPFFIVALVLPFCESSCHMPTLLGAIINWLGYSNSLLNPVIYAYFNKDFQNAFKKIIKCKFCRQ
The experiment in a line: Radioligand binding to recombinant 5-HT1A receptors. Conditions: [3H]8-OH-DPAT 1 nM, membranes of HeLa cells with human 5-HT1A receptor; Ki from IC50 by Cheng & Prusoff; read-out: Binding affinity for 5HT1A receptors, Ki. In short, it runs like this:
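Membranes from HeLa cells stably expressing human 5-HT1A incubated 30 min at 30 °C with 1 nM [3H]8-OH-DPAT and compound in 50 mM Tris-HCl pH 7.4, 2.5 mM MgCl2, […] pargyline. Nonspecific binding defined with 10 μM 5-HT; filtration readout, IC50 converted to Ki via Cheng–Prusoff.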

The test system of another experiment is anaesthetised rats. The experiment can be described thus: Effects on rhythmic bladder-voiding contractions induced by bladder filling in anaesthetised rats. Format: in vivo, rat. As to conditions: intravenous administration, urethane-anaesthetised rats; for ED50: Rattus norvegicus, read-out: ED50 frequency (extrapolated dose inducing a reduction of the number of contractions >30% in 50% of treated rats). On the procedure: Female Sprague-Dawley rats weighing 225-275 g (Crl: CDo Br, Charles River Italia) were used. The animals were housed with free access to food and water and maintained on a forced 12-hour alternating light-dark cycle at 22-24° C. for at least one week, except during the experiment. The activity on rhythmic bladder voiding contractions was evaluated according to the method of Dray (Dray J., Pharmacol. Methods, 13:157, 1985), with some modifications as in Guarneri (Guarneri, Pharmacol. Res. 27:173, 1993). Briefly, the rats were anaesthetised by subcutaneous injection of 1.25 g/kg (5 ml/kg) urethane, after which the urinary bladder was catheterised via the urethra using PE 50 polyethylene tubing filled with physiological saline. The catheter was tied in place with a ligature around the external urethral orifice and was connected to conventional pressure transducers (Statham P23 ID/P23 XL). […] The bladder was then filled via the recording catheter by incremental volumes of warm (37° C.) saline until reflex bladder-voiding contractions occurred (usually 0.8-1.5 ml). For intravenous injection of bioactive compounds, PE 50 polyethylene tubing filled with physiological saline was inserted into the jugular vein.
From the cystometrogram, the number of contractions recorded 15 minutes before (basal values) and after treatment, as well as the mean amplitude of these contractions (mean height of the peaks in mmHg), was evaluated.
Since most compounds produced an effect that was relatively rapid in onset and led to a complete cessation of bladder contractions, bioactivity was conveniently estimated by measuring the duration of bladder quiescence (i.e. the length of the time during which no contractions occurred). The number of tested animals showing a reduction in the number of contractions higher than 30% of that observed in the basal period was recorded too.
The extrapolated doses which induced a reduction in the number of contractions greater than 30% in 50% of the treated rats (ED50) were evaluated by the method of Bliss (Bliss C. I., Quart J. Pharm. Pharmacol. 11, 192-216, 1938).

The mark [2] stands for this setting: 0.5 h before 8-OH-DPAT (1 mg/kg s.c.).
Setting [3] is: 1 h before 8-OH-DPAT (1 mg/kg s.c.).
Setting [4] is: 4 h before 8-OH-DPAT (1 mg/kg s.c.).

pKi: −log10 of the molar value.

For `O=C(C1CC=CCC1)N1c2ccccc2CCC1CN1CCN(c2cccc3[nH]ccc23)CC1` (centres unmarked) [Example 24A1, 1-(1-Cyclohex-3-enylcarbonyl-1,2,3,4-tetrahydroquinoline-2-ylmethyl)-4-(4-indolyl)piperazine], the inhibition at 10 mg/kg on 5-HT1A receptors (setting [2]), against 5-HT1A receptors (setting [3]) and at 5-HT1A receptors (setting [4]) was 100% each time. Also, the pKi in experiment [1] was 8.59.

For `O=C(C1CCCC1)N1c2ccccc2CCC1CN1CCN(c2cccc3[nH]ccc23)CC1` (centres unmarked) [Example 24A3, 1-(1-Cyclopentanecarbonyl-1,2,3,4-tetrahydroquinoline-2-ylmethyl)-4-(4-indolyl)piperazine], the inhibition at 10 mg/kg on 5-HT1A receptors (setting [2]) was 100%; on 5-HT1A receptors (setting [3]), 93%; against 5-HT1A receptors (setting [4]) it was 100%. The negative logarithm of the Ki (pKi) in experiment [1] is 8.27.

Turning to `COc1ccccc1N1CCN(CCC2CCc3ccccc3N2C(=O)C2CCCCC2)CC1` (centres unmarked) [Example 3, 1-[2-(1-Cyclohexanecarbonyl-1,2,3,4-tetrahydroquinoline-2-yl)ethyl]-4-(2-methoxyphenyl)piperazine], in the experiment on anaesthetised rats, the ED50 is 0.02 mg/kg and the “ED10 min (extrapolated dose inducing 10 minutes of disappearance of the contractions)” value (shortened to “ED10 min”) is 0.08 mg/kg. For the same compound, the pKi in experiment [1] is 8.08.

`COc1ccccc1N1CCN(CC2CCc3ccccc3N2C(=O)C2CCCCC2)CC1` (centres unmarked) [Example 2, 1-(1-Cyclohexanecarbonyl-1,2,3,4-tetrahydroquinoline-2-ylmethyl)-4-(2-methoxyphenyl)piperazine]: in the experiment with anaesthetised rats, the ED50 is 0.172 mg/kg and the “ED10 min” value was 0.383 mg/kg. In addition, the pKi in experiment [1] was 9.52.

Consider `Cc1c(-c2ccccc2)oc2c(C(=O)OCCN3CCCCC3)cccc2c1=O` [Flavoxate, flavoxate, reference compound], for which, in the experiment on anaesthetised rats, the 50% effective dose (ED50) is 2.65 mg/kg and the “ED10 min” value was >10 mg/kg.

Take `O=C(C1CCCCC1)N1c2ccc(F)cc2CCC1CN1CCN(c2cccc3[nH]ccc23)CC1` (centres unmarked) [Example 18, 1-(1-Cyclohexanecarbonyl-6-fluoro-1,2,3,4-tetrahydroquinoline-2-ylmethyl)-4-(4-indolyl)piperazine]: the inhibition at 10 mg/kg on 5-HT1A receptors (setting [2]) came out at 98%; against 5-HT1A receptors (setting [3]), 92%; at 5-HT1A receptors (setting [4]), 92%. The negative logarithm of the Ki (pKi) in experiment [1] was 8.55.

With `O=C(C1CCCCC1)N1c2ccccc2CCC1CN1CCN(c2cccc3[nH]ccc23)CC1` (single isomer, unassigned; (+)) [Example (+)-1, (+)-1-(1-Cyclohexanecarbonyl-1,2,3,4-tetrahydroquinoline-2-ylmethyl)-4-(4-indolyl)piperazine], the “post-synaptic 5-HT1A-receptor antagonist activity (in words)” value at 5-HT1A receptors is “significant and complete inhibition of the symptom up to 4 hours after administration”. Also, the values for the inhibition at 1 mg/kg on 5-HT1A receptors (setting [2]), against 5-HT1A receptors (setting [3]) and at 5-HT1A receptors (setting [4]) were 100%, 100% and 98%, respectively. For the same compound, in the experiment with anaesthetised rats, the median effective dose (ED50) was 0.024 mg/kg. Moreover, the “ED10 min” value with anaesthetised rats was 0.072 mg/kg. For the same compound, in experiment [1], the negative-log Ki (pKi) was 9.70.

Take `Cc1[nH]c2cccc(N3CCN(CC4CCc5ccccc5N4C(=O)C4CCCCC4)CC3)c2c1C` (centres unmarked) [Example 35A13, 1-(1-Cyclohexanecarbonyl-1,2,3,4-tetrahydroquinoline-2-ylmethyl)-4-(2,3-dimethyl-4-indolyl)piperazine]: the inhibition at 10 mg/kg was determined as 95% on 5-HT1A receptors (setting [3]) and 100% on 5-HT1A receptors (setting [4]). Also, the negative-log Ki (pKi) in experiment [1] is 8.40.

With `O=C(C1CCCCC1)N1c2ccccc2CCC1CN1CCN(c2cccc3[nH]ccc23)CC1` (single isomer, unassigned; (-)) [(−)-1, (−)-1-(1-Cyclohexanecarbonyl-1,2,3,4-tetrahydroquinoline-2-ylmethyl)-4-(4-indolyl)piperazine], the “post-synaptic 5-HT1A-receptor antagonist activity (in words)” value at 5-HT1A receptors was “devoid of activity”. In addition, the inhibition at 1 mg/kg stood at 19% against 5-HT1A receptors (setting [2]), 5% at 5-HT1A receptors (setting [3]) and 9% against 5-HT1A receptors (setting [4]).

As to `O=C(c1ccccn1)N1c2ccccc2CCC1CN1CCN(c2cccc3[nH]ccc23)CC1` (centres unmarked) [Example 68A32, 1-(4-Indolyl)-4-[1-(2-pyridylcarbonyl)-1,2,3,4-tetrahydroquinoline-2-ylmethyl]piperazine], the negative-log Ki (pKi) in experiment [1] was 7.71.

As a reminder, the inhibition is the percentage by which the read-out fell short of the control. Low readings indicate a weak effect, high ones a strong effect. In general, pKi refers to −log10 of the Ki, conventionally taken in molar units. As usually defined, the ED50 is the dose that gives a 50% effect, or the effect in half of the subjects.
